Measurements taken from patent US10113189B2, “Isolation and characterization of a novel pythium omega 3 desaturase with specificity to all omega 6 fatty acids longer than 18 carbon chains” (priority 2006, dated 2018).

Legend:
[1] = tested on: control yeast pYES2 (yeast with pYES2.1 vector); assay: Production of ω-3 fatty acids from exogenous ω-6 fatty acids in the control yeast pYES2; format: cell-based, S. cerevisiae; conditions: ω-3 product (ALA, SDA, ETA, EPA, DHA) of the fed substrate, GC
Description: (§1) The plasmids containing the full length O3 genes in the yeast expression vector pYES2.1/V5-His-TOPO were transformed into yeast S. cerevisiae. The positive transformants were selected for uracil auxotrophy on DOB-U agar plates. To characterize the ω-3 desaturase enzyme activity, positive clones and the control (yeast with pYES2.1 vector) were cultured overnight in DOB-U liquid medium at 28° C. and then grown in induction medium (DOB-U+Gal+Raf) containing 100 μM of various exogenously supplied fatty acid substrates at 16° C. for 4 days. The whole yeast cells expressing Pythium ω-3 genes were harvested by centrifugation and washed twice with distilled water. Then the yeast cells were directly transmethylated with methanolic HCl (3N) at 80° C. for 1 hour. The resultant methyl esters were extracted with hexane and analyzed by gas chromatography (GC). GC was carried out as described in WO 2005/083053.

[2] = tested on: ω-3 desaturase from Pythium irregulare; format: cell-based, S. cerevisiae; conditions: for desaturation by ω-3 desaturase from Pythium (in words): expression in yeast, exogenously supplied ω-6 fatty acids; for Conversion (%) / Product (%): yeast transformant pYES2-O3; for Conversion (%): conversion of ω-6 substrate into the corresponding ω-3 product; for Product (%): ω-3 product (ALA, SDA, ETA, EPA, DHA) of the fed substrate, 100 μM, 16° C., 4 days, GC
Description: as §1

| Structure (SMILES) | Product (%) [1] [%] | desaturation by ω-3 desaturase from Pythium (in words) [2] | Conversion (%) [2] [%] | Product (%) [2] [%] |
| --- | --- | --- | --- | --- |
| CCCCC/C=C\C/C=C\CCCCCCCC(=O)O [LA, linoleic acid] | 0 | not able to desaturase | 0 | 0 |
| CCCCC/C=C\C/C=C\C/C=C\CCCCC(=O)O [GLA, γ-linolenic acid] | 0 | not able to desaturase | 0 | 0 |
| CC/C=C\C/C=C\C/C=C\C/C=C\C/C=C\CCCCCC(=O)O [DPA, docosapentaenoic acid] | 0.03 |  | 2.01 | 0.20 |
| CCCCC/C=C\C/C=C\C/C=C\CCCCCCC(=O)O [DGLA, dihomo-γ-linolenic acid] | 0 | desaturates | 9.65 | 1.90 |
